Legend:
[1] = MDCK permeability assay (A to B); assay type: in vitro ADME, Canine; conditions: dog, MDCK
Text: Compounds were further tested in a Madin–Darby Canine Kidney (MDCK) assay to evaluate their potential for oral absorption. […] Additionally, there was no trend for better permeability when comparing arm I versus arm II when matched with the same core. The size of the B ring had the greatest influence on Papp with the trend being five-membered > six-membered > seven-membered rings (Table 1).
cMdr1-KO cells were maintained in Dulbecco’s modified Eagle’s medium (DMEM) with sodium pyruvate and GlutaMax, supplemented with 1% Pen/Strep and 10% fetal bovine serum in an incubator set at 37 °C, 90% humidity, and 5% CO2. MDCKII- cMdr1-KO cells were grown to confluence over 3 days on 96-well PET plates with 1 μm pore size, polyester membrane (Corning 3392). Experiments were run using HBSS donor buffer from Invitrogen containing an additional 10 mM HEPES, 15 mM glucose, and 0.1% BSA adjusted to pH 7.4. The receiver well had HBSS buffer supplemented with 1% BSA, 10 mM HEPES, 15 mM glucose, and the pH was adjusted to 7.4. TEER values were read to test membrane integrity at the beginning of the assay. The experiment was started by the addition of dosing solutions containing test compounds. Samples were taken from the donor compartment at 0/120 min and from the receiver compartment at 120 min. Each compound was tested in two separate replicate wells. All samples were immediately collected in a 72:8:20 MeCN/MeOH:H2O mix to precipitate protein and stabilize the test compounds. Cells were dosed on the apical side to determine forward (A to B) permeability. To test for non-specific binding and compound instability, the total amount of drug was quantified at the end of the experiment and compared to the material present in the original dosing solution as a percentage of recovery. Samples were analyzed by RF-QToF.

[2] = Predicted clearance in human liver microsomes; assay type: in vitro ADME; conditions: pH 7.4, 1 μM compound, read-out: HLM CLint, pred (converted)
Procedure: Next, microsome stability was profiled in purified human liver microsomes (HLM).
Metabolic stability of compounds was assessed using HLM (Corning cat. 457117).[52] In this assay, 10 nL compounds at a concentration of 1 mM in 100% DMSO are dispensed into 384-well polypropylene plates using the Echo 550 acoustic liquid dispenser (Labcyte). Each plate contains 384 wells with a single test compound in each well.
A solution of HLM at 2 mg/mL in 100 mM K2HPO4/KH2PO4 pH 7.4 with 0.0225 mg/mL Alamethicin from Trichoderma viride (Sigma-Aldrich cat. A4665-10MG) was incubated on ice for 15 min. 5 μL of this solution was added to individual wells following 15 min incubation at room temperature; and supplemented with 5 μL NADPH Regenerating Solution of cofactors (Corning Gentest UGT Reaction Mix solutions A and B, cat. 451200 and 451220) containing 100 mM K2HPO4/KH2PO4 pH 7.4, 2.6 mM NADP^+, 6.6 mM glucose-6-phosphate, 6.6 mM MgCl2, 0.8 U/mL glucose-6-phosphate dehydrogenase, 0.1 mM sodium citrate, and 6.8 mM uridine diphosphate-glucuronic acid. The final concentration of analyte compounds at the beginning of the reactions was 1 μM. The reactions were incubated at 37 °C, and time points of 0, 5, 15, 30, 40, 50, 60, and 70 min were collected for further analysis. Background data were collected using reactions without analyte compounds.
Upon collection of the reaction time points, samples were quenched at the set time points with 30 μL of a solution of 72% acetonitrile, 8% methanol, 0.1% formic acid, 19.9% water, and labetalol as an internal standard (IS) at a concentration of 650 nM. Reaction plates were span in a centrifuge at a speed of 4000 rcf for 30 min and 4 °C, following a dilution of the 10 μL quenched reaction into 40 μL de-ionized water, yielding assay plates.
Samples were analyzed by a solid-phase extraction coupled with a quadrupole time-of-flight mass spectrometer, using an Agilent QToF 6530 RapidFire 360 system with C4 type A solid state cartridges. Analysis was performed in either positive or negative ionization modes. Mobile phases contained 0.1% formic acid in water for loading analytes onto solid state extraction cartridges, and 0.1% formic acid in acetonitrile for elution into the mass spectrometer in positive ionization mode, or 0.1% acetic acid in water for loading and 0.1% acetic acid in acetonitrile for extraction in negative ionization mode. Peak-area ratios of integrated counts for individual compounds to IS were plotted as a semi-logarithmic chart of log versus time. Initial, linear portion of decay was fitted to a linear regression equation to derive the half-time of a compound decay.
Pharmacological parameters for an analyte compound metabolism were calculated using the equations described in Table S2.
Table S2. Pharmacological parameters for an analyte compound metabolism were
calculated using the following equations:
Intrinsic Clearance (in Cl = ln 2
int, in vitro T1/2 ∗ Conc
Intrinsic Clearance Cl = Clint, in vitro ∗ Liver Mass ∗ Yield
Predicted Hepatic Cl = Clint ∗ QH
QH (Hepatic Blood Flow) = 1.3 L/hr/kg

HIV-1 HXB2 = test: MT-4 antiviral cytopathic effect assay, HXB2 wild-type virus; assay type: cell-based; conditions: Human immunodeficiency virus 1, MT4; HIV-1 HXB2 wild-type, MT-4 cells; read-out: EC50 HXB2
Procedure: The prepared compounds were tested for their anti-HIV-1 activity (Table 1). A viral cytopathic effect assay in MT-4 cells with HIV-1 IIIB virus was used to determine compound potency (EC50, 50% cell viability) in protecting virus induced cell killing. Compound cytotoxicity was assessed in MT-4 cells in the absence of virus (CC50, 50% cytotoxicity).
Compounds were tested in a high-throughput 384-well assay format for their ability to inhibit the virus replication-induced cytopathic effect in MT-4 cell cultures acutely infected with HIV-1 (IIIB strain), HXB2, HXB2-K103N, and HXB2-Y181C. Compounds were serially diluted (1:3) in DMSO on 384-well polypropylene plates and further diluted 200-fold into complete RPMI media (10% FBS, 1% P/S) using Biotek Micro Flow and an Agilent ECHO acoustic dispenser. Each plate contained up to eight test compounds, with negative (no drug control) and 5 μM AZT positive controls. MT-4 cells were further diluted in complete RPMI media and added to each plate using a Micro-Flo dispenser. After five days of incubation in a humidified and temperature-controlled incubator (37 °C), Cell Titer Glo (Promega) was added to the assay plates to quantify the amount of […]. EC50 and CC50 values were defined as the compound concentration that causes a 50% decrease in luminescence signal and were calculated using a sigmoidal dose-response model to generate curve fits.

Structure (SMILES): Cc1cc(C#N)cc(C)c1N1CC(=O)Nc2cnc(Nc3ccc(C#N)cc3)nc21 [Compound 3, 4-(2-((4-Cyanophenyl)amino)-6-oxo-6,7-dihydropteridin-8(5H)-yl)-3,5-dimethylbenzonitrile]
- Papp A→B at 120 min ([1]; supplement CSV): 4.1 ×10⁻⁶ cm/s
- Papp A→B at 120 min ([1]; apparent permeability coefficient, A to B, pH 7.4): 4.1 ×10⁻⁶ cm/s
- CLint scaled at 1.167 h, 1 µM [2]: 18.3 mL/min/kg
- EC50 (HIV-1 HXB2): 8.1 nM

Reference: article PMC10017027, “Design and Synthesis of Novel HIV-1 NNRTIs with Bicyclic Cores and with Improved Physicochemical Properties” (Journal of Medicinal Chemistry, 2023)
